# Results published in publication doi:10.1101/2025.05.02.651384v1 (biorxiv, 2025).
# Columns and labels:
# HCAR1 (GPR81) [1] = molecular target: T1, HCAR1 (GPR81) (Homo sapiens, UniProt Q9BXC0); test: ebBRET Gαz activation; assay type: cell-based
# HCAR1 (GPR81) [2] = molecular target: T1, HCAR1 (GPR81); test: ebBRET Gαi2 activation; assay type: cell-based; conditions: Gαi2, 37 °C, agonist
# T1 sequence (Q9BXC0 whole entry): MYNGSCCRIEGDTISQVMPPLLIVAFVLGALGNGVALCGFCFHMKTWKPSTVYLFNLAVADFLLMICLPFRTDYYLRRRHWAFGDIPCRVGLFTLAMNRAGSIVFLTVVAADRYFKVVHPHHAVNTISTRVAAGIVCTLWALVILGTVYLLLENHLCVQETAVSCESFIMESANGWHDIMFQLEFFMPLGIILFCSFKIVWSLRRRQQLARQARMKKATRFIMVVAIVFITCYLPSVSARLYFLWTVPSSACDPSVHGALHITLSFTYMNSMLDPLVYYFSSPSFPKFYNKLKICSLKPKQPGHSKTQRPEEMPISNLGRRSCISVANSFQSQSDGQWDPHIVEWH
SMILES,EC50 (HCAR1 (GPR81) [1]) [µM],EC50 (HCAR1 (GPR81) [2]) [µM]
"O=C(O)c1cc(O)cc(O)c1 [3,5-DHBA]",0.2,–
C[C@H](O)C(=O)O [(+)-lactic acid],1000,–
CCOc1cc(Cl)c(C(=O)NC(=O)Nc2ncc(C)s2)cc1N1CCOCC1 [AZ2053],–,1.78
CCOc1cc(Cl)c(C(=O)NC(=O)Nc2nc3c(s2)CN(C(C)=O)CC3)cc1N1CCOCC1 [AZ4901],–,7.1
CCOc1cc(Cl)c(C(=O)NC(=O)Nc2nc3c(s2)CCCC3)cc1N1CCOCC1 [AZ9091],–,2
CCOc1cc(Cl)c(-c2ccc(-c3nc4ccccc4s3)c(=O)[nH]2)cc1N1CCOCC1 [AZ9234],–,6.8
CN1CCN(C(=O)Cc2sc(NC(=O)[C@H]3CC[C@H](C)CC3)nc2-c2cccs2)CC1 [GPR81 agonist 1],0.63,–
